Key:
[1] = system: non-reducing saccharide-forming enzyme; type: biochemical, Rhizobium sp. M-11; conditions: for Formation of novel saccharide from substrate / Percentage of newly-formed saccharide (P I to P V) in reaction product: 20% substrate, 40° C., pH 7.0, 48 hours; for Percentage of remaining substrate in reaction product: non-reducing saccharide-forming enzyme, 48 h, pH 7; for Percentage of newly-formed saccharide (P I to P V) in reaction product: 2 units per g substrate, HPLC
Method: An aqueous solution containing 20% glucose, maltose, maltotriose, maltotetraose, maltopentaose, maltohexaose or maltoheptaose as a substrate was prepared, and mixed with 2 units per g substrate, d.s.b., of the purified enzyme preparation obtained in Experiment 2, and the resultant mixture was subjected to an enzymatic reaction at 40° C. and pH 7.0 for 48 hours. The reaction mixture was desalted and analyzed on high-performance liquid chromatography (HPLC) using "Wakobeads WB-T-330 column", a product of Wako Pure Chemical Industries Ltd., Tokyo, Japan. The HPLC procedure was conducted at an ambient temperature and a flow rate of 0.5 ml/min of water as an eluent, and "RI-8012", a differential refractometer commercialized by Tosho Corporation, Tokyo, Japan, was used for analyzing reaction products.

[2] = Reducing power by Somogyi-Nelson's method expressed as DE; type: physicochemical; conditions: for DE: high-purity saccharide preparations of Experiment 4
Method: The reducing powders of these novel saccharides were determined on the Somogyi-Nelson's method and expressed by DE (dextrose equivalent).

[3] = Maillard reaction with glycine; type: physicochemical; conditions: for Coloration degree (480 nm): 1% glycine, 10% saccharide, 50 mM phosphate buffer pH 7.0, 100° C. for 90 min, absorbance in 1-cm cell; for Coloration degree relative to corresponding material maltooligosaccharide: Maillard reaction, 480 nm
Method: As a control, maltotriose, maltotetraose, maltopentaose, maltohexaose and maltoheptaose as a material for the saccharide preparations were similarly treated as above, and measured their absorbances were measured at a wave length of 480 nm.

glucoamylase = assay: Enzymatic hydrolysis by glucoamylase; type: biochemical; conditions: for Glucose / Trehalose: 50 mg in 1 ml 50 mM acetate buffer pH 4.5, one unit glucoamylase, 40° C., 6 hours, HPLC; for Molecular ratio (Glucose/Trehalose): glucoamylase hydrolysate
Method: Fifty mg aliquots of non-reducing saccharides P I, P II, P III, P IV and P V in Experiment 4 were respectively dissolved in one ml of 50 mM acetate buffer (pH 4.5), admixed with one unit of glucoamylase commercialized by Seikagaku-Kogyo Co., Ltd., Tokyo, Japan, to effect enzymatic hydrolysis at 40° C. for 6 hours. The only saccharides detected in every resultant mixture on HPLC analysis were glucose and trehalose.

[4] = system: rat intestinal acetone powder; assay: Hydrolysis by rat intestinal acetone powder; type: in vitro ADME; conditions: 50 mM maleate buffer pH 6.0, 37° C., 18 hours
Method: (§1) The enzymatic reaction with the α-amylase was as follows: Dissolving 10 mg of a substrate in one ml of 50 mM phosphate buffer (pH 6.9), mixing the resultant solution with one unit of the α-amylase, and incubating the resultant mixture at 37° C. for 18 hours. The enzymatic reaction with the α-glucosidase was conducted under the same conditions as in the case of α-amylase except that 50 mM acetate buffer (pH 4.0) was used as a buffer. The enzymatic reaction with the rat intestinal acetone powder was carried out under the same conditions as in the case of α-amylase except that 50 mM maleate buffer (pH 6.0) was used as a buffer.

[5] = system: 7-week old dd-strain mice; assay: Acute toxicity test, oral; type: in vivo; conditions: oral, highest possible doses
[6] = target: T1, α-glucosidase specimen derived from rice (Oryza sativa subsp. japonica, UniProt Q653V7); assay: Hydrolysis by α-glucosidase; type: biochemical; conditions: 50 mM acetate buffer pH 4.0, 37° C., 18 hours
T1 construct: purchased Sigma Chemical Company, St. Louis, USA; host or cells: rice
Method: as §1

[7] = target: T2, α-amylase specimen derived from pig pancreas (Sus scrofa, UniProt P00690); assay: Hydrolysis by α-amylase; type: biochemical; parameters: Saccharide composition of hydrolysate: P I / Saccharide composition of hydrolysate: P II / Saccharide composition of hydrolysate: G3 (maltotriose) / Saccharide composition of hydrolysate: G2 (maltose) / Saccharide composition of hydrolysate: G1 (glucose): unit not given here; conditions: for Hydrolysis by α-amylase: conclusion from Table 6; for Saccharide composition of hydrolysate: G1 (glucose) / Saccharide composition of hydrolysate: G2 (maltose) / Saccharide composition of hydrolysate: G3 (maltotriose) / Saccharide composition of hydrolysate: P I / Saccharide composition of hydrolysate: P II: α-amylase, 10 mg/ml, pH 6.9, 37° C., 18 hours, HPLC
T2 construct: purchased Sigma Chemical Company, St. Louis, USA; host or cells: pig pancreas
T2 sequence (P00690 16-511): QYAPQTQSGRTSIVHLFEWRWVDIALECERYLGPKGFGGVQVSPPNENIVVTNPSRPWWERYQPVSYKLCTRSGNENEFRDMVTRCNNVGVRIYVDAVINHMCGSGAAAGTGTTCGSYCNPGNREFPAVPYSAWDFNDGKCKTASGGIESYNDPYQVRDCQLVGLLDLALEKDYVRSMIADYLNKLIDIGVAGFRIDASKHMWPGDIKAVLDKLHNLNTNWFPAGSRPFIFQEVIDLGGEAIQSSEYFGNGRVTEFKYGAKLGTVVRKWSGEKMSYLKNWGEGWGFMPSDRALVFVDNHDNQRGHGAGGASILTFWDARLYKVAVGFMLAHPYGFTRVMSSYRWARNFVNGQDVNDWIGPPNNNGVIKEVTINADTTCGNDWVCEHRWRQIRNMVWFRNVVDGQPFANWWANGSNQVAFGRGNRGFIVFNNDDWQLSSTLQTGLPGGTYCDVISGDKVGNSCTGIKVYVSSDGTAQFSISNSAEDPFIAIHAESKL
Method: as §1

β-amylase = β-amylase (Glycine max, UniProt P10538); assay: Hydrolysis by β-amylase; type: biochemical; conditions: similarly as with glucoamylase
Chain of β-amylase (P10538 whole entry, species assumed): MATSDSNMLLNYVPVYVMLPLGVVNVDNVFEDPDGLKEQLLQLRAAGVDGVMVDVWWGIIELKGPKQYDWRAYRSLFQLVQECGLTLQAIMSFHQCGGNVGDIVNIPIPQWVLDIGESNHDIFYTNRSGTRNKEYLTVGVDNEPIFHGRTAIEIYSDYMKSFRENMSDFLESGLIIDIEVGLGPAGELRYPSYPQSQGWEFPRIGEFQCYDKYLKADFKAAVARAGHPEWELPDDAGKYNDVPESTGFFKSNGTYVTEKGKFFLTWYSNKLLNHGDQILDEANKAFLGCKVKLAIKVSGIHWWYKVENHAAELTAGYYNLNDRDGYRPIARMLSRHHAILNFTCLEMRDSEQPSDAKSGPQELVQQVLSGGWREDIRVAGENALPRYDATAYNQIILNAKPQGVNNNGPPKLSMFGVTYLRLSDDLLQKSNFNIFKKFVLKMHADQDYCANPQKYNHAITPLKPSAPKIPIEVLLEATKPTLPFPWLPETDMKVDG

T1 sequence (Q653V7 34-885): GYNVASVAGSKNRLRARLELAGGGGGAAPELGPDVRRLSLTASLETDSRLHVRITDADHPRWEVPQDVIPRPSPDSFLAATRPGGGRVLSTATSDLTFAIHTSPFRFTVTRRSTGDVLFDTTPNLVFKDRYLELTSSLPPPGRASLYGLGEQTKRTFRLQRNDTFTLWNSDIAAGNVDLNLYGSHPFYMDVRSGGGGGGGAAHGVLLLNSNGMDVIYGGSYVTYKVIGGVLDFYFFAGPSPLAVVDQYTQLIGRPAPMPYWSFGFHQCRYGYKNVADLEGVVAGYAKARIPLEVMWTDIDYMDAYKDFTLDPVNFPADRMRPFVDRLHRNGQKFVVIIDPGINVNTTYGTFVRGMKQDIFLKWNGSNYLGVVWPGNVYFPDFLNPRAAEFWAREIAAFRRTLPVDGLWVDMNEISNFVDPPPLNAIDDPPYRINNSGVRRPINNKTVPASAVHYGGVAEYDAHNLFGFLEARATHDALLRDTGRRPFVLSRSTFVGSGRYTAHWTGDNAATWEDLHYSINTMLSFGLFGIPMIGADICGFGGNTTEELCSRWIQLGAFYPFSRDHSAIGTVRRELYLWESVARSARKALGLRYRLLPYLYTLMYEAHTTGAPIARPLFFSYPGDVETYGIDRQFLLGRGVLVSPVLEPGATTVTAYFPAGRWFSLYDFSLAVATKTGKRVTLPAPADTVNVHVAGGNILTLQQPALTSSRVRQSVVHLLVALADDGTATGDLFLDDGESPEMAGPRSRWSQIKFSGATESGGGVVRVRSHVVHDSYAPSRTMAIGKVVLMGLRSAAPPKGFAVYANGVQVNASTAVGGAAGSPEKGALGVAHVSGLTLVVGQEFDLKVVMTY

OC[C@H]1O[C@H](O[C@H]2[C@H](O)[C@@H](O)C(O)O[C@@H]2CO)[C@H](O)[C@@H](O)[C@@H]1O (mixture of isomers) [Maltose]
Formation of novel saccharide from substrate [1]: no novel saccharide was formed | Percentage of remaining substrate in reaction product [1]: 100.0%

OC[C@H]1O[C@H](O[C@H]2O[C@H](CO)[C@@H](O[C@H]3O[C@H](CO)[C@@H](O[C@H]4O[C@H](CO)[C@@H](O[C@H]5O[C@H](CO)[C@@H](O)[C@H](O)[C@H]5O)[C@H](O)[C@H]4O)[C@H](O)[C@H]3O)[C@H](O)[C@H]2O)[C@H](O)[C@@H](O)[C@@H]1O [Example A-5]
DE of product ([2]; products of Examples A): lower than 0.2

OC[C@H]1OC(O)[C@H](O)[C@@H](O)[C@@H]1O (stereo partly shown) [Glucose]
Formation of novel saccharide from substrate [1]: no novel saccharide was formed | Percentage of remaining substrate in reaction product [1]: 100.0%

OC[C@H]1O[C@H](O[C@H]2[C@H](O)[C@@H](O)[C@@H](O[C@H]3[C@H](O)[C@@H](O)[C@@H](O[C@H]4[C@H](O)[C@@H](O)[C@@H](O[C@H]5[C@H](O)[C@@H](O)[C@@H](O[C@H]6[C@H](O)[C@@H](O)[C@@H](O[C@H]7[C@H](O)[C@@H](O)C(O)O[C@@H]7CO)O[C@@H]6CO)O[C@@H]5CO)O[C@@H]4CO)O[C@@H]3CO)O[C@@H]2CO)[C@H](O)[C@@H](O)[C@@H]1O (stereo partly shown) [Maltoheptaose]
Coloration degree (480 nm) [3]: 0.271 | Percentage of newly-formed saccharide (P I to P V) in reaction product [1]: 93.4% | Percentage of remaining substrate in reaction product [1]: 6.7%

OC[C@H]1O[C@H](O[C@H]2[C@H](O)[C@@H](O)[C@@H](O[C@H]3[C@H](O)[C@@H](O)[C@@H](O[C@H]4[C@H](O)[C@@H](O)[C@@H](O[C@H]5[C@H](O)[C@@H](O)[C@@H](O[C@H]6[C@H](O)[C@@H](O)C(O)O[C@@H]6CO)O[C@@H]5CO)O[C@@H]4CO)O[C@@H]3CO)O[C@@H]2CO)[C@H](O)[C@@H](O)[C@@H]1O (stereo partly shown) [Maltohexaose]
Coloration degree (480 nm) [3]: 0.318 | Percentage of newly-formed saccharide (P I to P V) in reaction product [1]: 93.5% | Percentage of remaining substrate in reaction product [1]: 6.5%

OC[C@H]1O[C@H](O[C@H]2[C@H](O)[C@@H](O)[C@@H](O[C@H]3[C@H](O)[C@@H](O)[C@@H](O[C@H]4[C@H](O)[C@@H](O)[C@@H](O[C@H]5[C@H](O)[C@@H](O)C(O)O[C@@H]5CO)O[C@@H]4CO)O[C@@H]3CO)O[C@@H]2CO)[C@H](O)[C@@H](O)[C@@H]1O (stereo partly shown) [Maltopentaose]
Coloration degree (480 nm) [3]: 0.369 | Percentage of newly-formed saccharide (P I to P V) in reaction product [1]: 92.7% | Percentage of remaining substrate in reaction product [1]: 7.3% | Initial reducing power that diminishes by the enzymatic reaction ([1]; substrate of the present enzyme): about 93%

OC[C@H]1O[C@H](O[C@H]2[C@H](O)[C@@H](O)[C@@H](O[C@H]3[C@H](O)[C@@H](O)[C@@H](O[C@H]4[C@H](O)[C@@H](O)C(O)O[C@@H]4CO)O[C@@H]3CO)O[C@@H]2CO)[C@H](O)[C@@H](O)[C@@H]1O (stereo partly shown) [Maltotetraose]
Coloration degree (480 nm) [3]: 0.475 | Percentage of newly-formed saccharide (P I to P V) in reaction product [1]: 85.6% | Percentage of remaining substrate in reaction product [1]: 14.4%

OC[C@H]1O[C@H](O[C@H]2[C@H](O)[C@@H](O)[C@@H](O[C@H]3[C@H](O)[C@@H](O)C(O)O[C@@H]3CO)O[C@@H]2CO)[C@H](O)[C@@H](O)[C@@H]1O (stereo partly shown) [Maltotriose]
Coloration degree (480 nm) [3]: 0.623 | Percentage of newly-formed saccharide (P I to P V) in reaction product [1]: 35.0% | Percentage of remaining substrate in reaction product [1]: 65.0%

OC[C@H]1O[C@H](O[C@H]2O[C@H](CO)[C@@H](O[C@H]3O[C@H](CO)[C@@H](O)[C@H](O)[C@H]3O)[C@H](O)[C@H]2O)[C@H](O)[C@@H](O)[C@@H]1O [P I, α-glucosyl trehalose]
Glucose (glucoamylase): 36.2% | Trehalose (glucoamylase): 63.8% | Molecular ratio (Glucose/Trehalose) (glucoamylase): 1.07 | Saccharide composition of hydrolysate with rat intestinal acetone powder: Glucose [4]: 37.2% | Saccharide composition of hydrolysate with rat intestinal acetone powder: Other saccharides [4]: 0.4% | Saccharide composition of hydrolysate with rat intestinal acetone powder: Trehalose [4]: 62.4% | Coloration degree (480 nm) [3]: 0.027 | Coloration degree relative to corresponding material maltooligosaccharide [3]: 3-6% | DE [2]: 0.83 | Death of mice [5]: no mouse died | Saccharide composition of hydrolysate with α-glucosidase: Glucose [6]: 36.5% | Saccharide composition of hydrolysate with α-glucosidase: Other saccharides [6]: 0.5% | Saccharide composition of hydrolysate with α-glucosidase: Trehalose [6]: 63.0% | Hydrolysis by α-amylase [7]: not substantially hydrolyzed | Saccharide composition of hydrolysate: G1 (glucose) [7]: 0 | Saccharide composition of hydrolysate: G2 (maltose) [7]: 0.4 | Saccharide composition of hydrolysate: G3 (maltotriose) [7]: 2.3 | Saccharide composition of hydrolysate: P I [7]: 97.3 | Saccharide composition of hydrolysate: P II [7]: 0 | Hydrolysis by β-amylase (β-amylase): not hydrolyzed

OC[C@H]1O[C@H](O[C@H]2O[C@H](CO)[C@@H](O[C@H]3O[C@H](CO)[C@@H](O[C@H]4O[C@H](CO)[C@@H](O)[C@H](O)[C@H]4O)[C@H](O)[C@H]3O)[C@H](O)[C@H]2O)[C@H](O)[C@@H](O)[C@@H]1O [P II, α-maltosyl trehalose]
Glucose (glucoamylase): 52.0% | Trehalose (glucoamylase): 48.0% | Molecular ratio (Glucose/Trehalose) (glucoamylase): 2.06 | Saccharide composition of hydrolysate with rat intestinal acetone powder: Glucose [4]: 52.5% | Saccharide composition of hydrolysate with rat intestinal acetone powder: Other saccharides [4]: 0.4% | Saccharide composition of hydrolysate with rat intestinal acetone powder: Trehalose [4]: 47.1% | Coloration degree (480 nm) [3]: 0.018 | Coloration degree relative to corresponding material maltooligosaccharide [3]: 3-6% | DE [2]: 0.35 | Death of mice [5]: no mouse died | Saccharide composition of hydrolysate with α-glucosidase: Glucose [6]: 52.1% | Saccharide composition of hydrolysate with α-glucosidase: Other saccharides [6]: 0.3% | Saccharide composition of hydrolysate with α-glucosidase: Trehalose [6]: 47.6% | Hydrolysis by α-amylase [7]: not substantially hydrolyzed | Saccharide composition of hydrolysate: G1 (glucose) [7]: 0 | Saccharide composition of hydrolysate: G2 (maltose) [7]: 0.8 | Saccharide composition of hydrolysate: G3 (maltotriose) [7]: 0.4 | Saccharide composition of hydrolysate: P I [7]: 0 | Saccharide composition of hydrolysate: P II [7]: 98.8 | Hydrolysis by β-amylase (β-amylase): not hydrolyzed
